# Entries after “also recorded” stand apart in the source; their conditions may differ. Read-outs that look alike come from different tables or passages of the source.
# Key:
# [1] = system: J774 murine macrophage cells; test: Alamar Blue J774 murine macrophage viability assay; format: cell-based; conditions: for IC50: Mus musculus; for effect on J774 survival: data not shown
# Description: J774 cells were plated at 10^4 cells per well in 150 μL αMEM (α Modified Eagle Medium) in 96-well plates and grown overnight. The next day, compounds were added to the cultures, and culture was continued for another 72 hours.
# Alamar Blue is an oxidation-reduction sensitive indicator. The dye itself is in the oxidised state, which is blue and non-fluorescent. The dye can accept electrons from reducing species, such as NADPH and FADH, to form a reduced dye species, which is red and fluorescent. Thus the transformation from oxidised form to reduced form can be measured by fluorimetric or colourimetric means. For fluorescence measurements, 530-560 nm excitation and 590 nm emission wavelengths are typically used. For colourimetric measurements, absorbance is measured at 570 nm (reduced form) and 600 nm (oxidised form) and a simple calculation performed to determine the relative quantities of the two species.
# A high ratio of the reducing species, NADPH and FADH, to the corresponding oxidised species, NADP and FAD, is an indicator that cells are proliferating and viable. A low ratio indicates cells that are quiescent or non-viable.
# Briefly, Alamar Blue (Biosource International) was added undiluted to the each well (1:10 v/v, 15 μL). The plate was incubated at 37° C. for 3-4 hours and the fluorescence was measured at 570 nm, with a 25 nm bandwidth. A high reading indicated cells with normal viability, and a low reading indicates cells that have been damaged and are no longer proliferating normally.
# In general, compounds studied were made up as 100 mM solutions in DMSO. These stock solutions were then diluted 100 or 1000× in culture medium (αMEM).
# rabbit osteoclasts = test: Rabbit osteoclast culture; format: cell-based
# Description: Osteoclast survival and activity was studied in cultures of rabbit osteoclasts. Osteoclasts were isolated from the long bones of 2-3 day-old rabbits as described previously (see, e.g., Coxon et al., 2000), plated on dentine slices and cultured in αMEM supplemented with 10% FCS and penicillin and streptomycin at 37° C. in 5% CO2 for 48 hours in the presence or absence of test compounds.
# [2] = system: ovariectomy induced bone loss; test: Ovariectomy induced bone loss, peripheral quantitative computed tomography; format: in vivo, C57/BL6 mice; conditions: for ovariectomy-induced bone loss in a mouse model: in vivo
# CB1 receptor [3] = molecular target: T1, CB1 receptor (Homo sapiens, UniProt P21554); conditions: cited from earlier work
# CB1 receptor [4] = molecular target: T1, CB1 receptor; conditions: read-out: Ki (nM) CB1, cited from earlier work
# CB2 receptor [5] = molecular target: T2, CB2 receptor (Homo sapiens, UniProt P34972); conditions: cited from earlier work; for Classification CB2: Table 1; for CB receptor function (CB2): Table 2
# CB2 receptor [6] = molecular target: T2, CB2 receptor
# mouse osteoblasts = test: Mouse osteoblast culture (Alamar Blue); format: cell-based; conditions: 72 hours, n=3
# Description: Osteoblasts were isolated as described above and plated at 10^4 cells/well in 96-well plates in 100 μL of αMEM supplemented with 10% FCS and antibiotics. Test substances were added after 24 hours and left for 72 hours. Cell viability was assessed using the Alamar Blue assay.
# osteoclasts = test: cells; format: cell-based, mice; conditions: Mus musculus, Osteoclast; TRAcP MNC and resorbed area, n=3; read-out: IC50, inhibition of osteoclast function and bone resorption
# Description: Osteoblasts were isolated from the calvarial bones of 2-day-old mice by sequential collagenase digestion (type I collagenase, Sigma) and cultured in αMEM supplemented with 10% FCS and penicillin and streptomycin at 37° C. in 5% CO2. […] The resulting bone marrow cells were washed with PBS and resuspended in culture medium.
# Osteoblasts and bone marrow cells were plated at 10^4 cells/well and 2×10^5 cells/well, respectively, in 96-well plates in 150 μL of αMEM supplemented with 10% FCS, antibiotics and 10 nM 1,25-dihydroxyvitamin D3. Test substances were added on day 7 and the cultures were terminated on day 10. At the end of the culture period, osteoclasts were identified by TRAcP staining and resorption pits were quantified by reflected light microscopy, as described above.
# [7] = system: ovariectomy induced bone loss; test: Ovariectomy induced bone loss, dual energy x-ray absorptiometry; format: in vivo, C57/BL6 mice; conditions: 6 mg/kg, OVX operation, DEXA
# Description: Animals. Female 9 week-old C57/BL6 mice. Animals were housed in a designated animal facility and routinely maintained on a 12 h:12 h light:dark cycle and given ad libitum access to food and water.
# Ovariectomy induced bone loss. Bilateral ovariectomy (Ovx) was performed under general anaesthesia. Sham ovariectomy (Sham) was similarly performed but with externalisation and replacement of the ovaries. Animals were given a daily injection of (a) candidate compound (e.g., 6 mg/kg) in vehicle (corn oil), or (b) vehicle (corn oil). After 21 days, the animals were killed, and the tibial bones were dissected and used for bone mineral density measurements and histomorphometric analysis (see below).
# Whole body, spine and femoral bone mineral density (BMD) and bone mineral content (BMC) were determined using a Piximus small animal DEXA scanner at the start and the end of the experiment. Daily quality assurance measurements were performed using a phantom according to the manufacturer's instructions.
# [8] = J774, Alamar Blue, 72 hours, n=3, read-out: IC50, J774 survival
# [9] = J774 viability assay, Table 2, read-out: IC50 in J774 cells
# [10] = Table 1; read-out: Ki (nM) CB2; cited from earlier work
# T2 sequence (P34972 whole entry): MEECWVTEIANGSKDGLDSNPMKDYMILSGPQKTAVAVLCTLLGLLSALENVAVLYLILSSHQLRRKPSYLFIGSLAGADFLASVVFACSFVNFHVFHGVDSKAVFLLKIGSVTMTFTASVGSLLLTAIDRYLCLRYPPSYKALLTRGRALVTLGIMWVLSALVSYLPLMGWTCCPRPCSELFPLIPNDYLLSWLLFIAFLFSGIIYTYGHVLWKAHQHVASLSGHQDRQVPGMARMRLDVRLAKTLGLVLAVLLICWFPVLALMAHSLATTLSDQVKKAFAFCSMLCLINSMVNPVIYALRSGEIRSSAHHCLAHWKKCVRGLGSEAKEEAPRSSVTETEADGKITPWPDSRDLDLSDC
# T1 sequence (P21554 whole entry): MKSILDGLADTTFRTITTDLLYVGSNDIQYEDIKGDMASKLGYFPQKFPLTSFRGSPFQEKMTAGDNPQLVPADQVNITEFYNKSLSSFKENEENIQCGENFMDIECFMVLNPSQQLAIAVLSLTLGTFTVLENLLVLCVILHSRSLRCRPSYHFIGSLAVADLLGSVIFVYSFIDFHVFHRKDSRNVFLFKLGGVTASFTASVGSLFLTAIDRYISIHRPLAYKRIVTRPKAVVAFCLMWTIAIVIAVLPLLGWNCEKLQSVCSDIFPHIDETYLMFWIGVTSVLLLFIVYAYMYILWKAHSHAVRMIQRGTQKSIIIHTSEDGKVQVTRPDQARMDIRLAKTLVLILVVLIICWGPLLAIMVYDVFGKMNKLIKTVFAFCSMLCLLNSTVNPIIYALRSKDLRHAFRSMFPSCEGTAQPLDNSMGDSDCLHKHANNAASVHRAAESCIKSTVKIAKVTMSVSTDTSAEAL
compound,measurement,setting,value
Cc1c(C(=O)NN2CCCCC2)nn(-c2ccc(Cl)cc2Cl)c1-c1ccc(I)cc1 [AM251],J774 viability (summary in words),[1],inhibit
same,bone resorption (resorbed area),"rabbit osteoclasts; 10 μM (p<0.03) and 20 μM (p<0.01), 48 hours",reduced
same,ovariectomy-induced bone loss in a mouse model,[2],completely reverse
same,CB receptor function (CB1),CB1 receptor [3],CB1 inverse agonist
same,Classification CB1,CB1 receptor [3],Inverse agonist
Cc1c(C(=O)NN2CCOCC2)nn(-c2ccc(Cl)cc2Cl)c1-c1ccc(I)cc1 [AM281],Classification CB1,CB1 receptor [3]; Table 1,Inverse agonist
same,Ki,CB1 receptor [4]; Table 1,12 nM
COc1ccc(C(=O)c2c(C)n(CCN3CCOCC3)c3cc(I)ccc23)cc1 [AM630],J774 viability (summary in words),[1],inhibit
same,IC50,[1]; [8],~20 µM
same,IC50,[1]; [9],20 µM
same,Classification CB2,CB2 receptor [5],Inverse agonist
same,CB receptor function (CB2),CB2 receptor [5],CB2 inverse agonist
"CCCCC/C=C\C/C=C\C/C=C\C/C=C\CCCC(=O)NCCO [Anandamide, arachidonyl ethanolamide]",J774 viability (summary in words),[1],inhibits
same,IC50,[1]; [8],~40 µM
same,IC50,[1]; [9],40 µM
same,effect on J774 survival,[1]; low concentrations,no effect
same,Classification CB2,CB2 receptor [5],Partial agonist
same,CB receptor function (CB2),CB2 receptor [5],CB2 partial agonist/; also recorded: antagonist
CCCCCCC(C)(C)c1ccc([C@@H]2C[C@H](O)CC[C@H]2CCCO)c(O)c1 [CP55940],J774 viability (summary in words),[1],do not affect
same,IC50 in J774 cells,"[1]; J774 viability assay, Table 2",inactive
same,effect on J774 survival,[1]; concentrations of up to 100 μM,did not affect
same,CB receptor function (CB1),CB1 receptor [3],CB1 agonist
same,CB receptor function (CB2),CB2 receptor [5],CB2 agonist
"CCCCCc1cc(O)c2c(c1)OC(C)(C)c1ccc(C)cc1-2 [Cannabinol, cannabinol]",Ki,CB2 receptor [6]; read-out: Ki (nM) CB2; Table 1; cited from earlier work,580 nM
same,Classification CB1,CB1 receptor [3],Neutral antagonist
same,Classification CB2,CB2 receptor [5],Inverse agonist
same,Ki,CB1 receptor [4],115 nM
"CCCCCOc1c(OC)ccc2cc(C(=O)NCc3ccc4c(c3)OCO4)c(=O)[nH]c12 [JTE-907, 7-Methoxy-2-oxo-8-pentyloxy-1,2-dihydro-quinoline-3-carboxylic acid (benzo[1,3]dioxol-5-yl-methyl)-amide]",IC50,[1]; [8],~25 µM
same,IC50,[1]; [9],25 µM
same,osteoblast survival,mouse osteoblasts,little activity
same,Classification CB1,CB1 receptor [3],Inactive
same,Classification CB2,CB2 receptor [5],Inverse agonist
same,CB receptor function (CB2),CB2 receptor [5],CB2 inverse agonist
same,Ki,CB1 receptor [4],684 nM
CCCC(C)(C)c1ccc2c(c1)OC(C)(C)[C@@H]1CC=C(C)C[C@@H]21 [JWH 133],J774 viability (summary in words),[1],does not affect
same,IC50 in J774 cells,"[1]; J774 viability assay, Table 2",inactive
same,effect on J774 survival,[1]; concentrations of up to 20 μM,did not affect
same,CB receptor function (CB2),CB2 receptor [5],CB2-selective agonist
COc1ccc(-c2oc3cc(OC)ccc3c2C(=O)c2ccc(C#N)cc2)cc1 [LY320135],Classification CB1,CB1 receptor [3]; Table 1,Inverse agonist
same,Classification CB2,CB2 receptor [5],Inactive
CC1=CCC2[C@@H](C1)c1c(O)cc(CC#CCCCN=[N+]=[N-])cc1OC2(C)C (stereo partly drawn) [O1184],Ki,CB2 receptor [6]; [10],7.4 nM
same,Classification CB1,CB1 receptor [3]; Table 1,Partial agonist
same,Classification CB2,CB2 receptor [5],Inverse agonist
same,Ki,CB1 receptor [4]; Table 1,5.2 nM
CC1=CCC2[C@@H](C1)c1c(O)cc(C/C=C\CCCN=[N+]=[N-])cc1OC2(C)C (stereo partly drawn) [O1238],Ki,CB2 receptor [6]; [10],7.8 nM
same,Classification CB1,CB1 receptor [3]; Table 1,Partial agonist
same,Classification CB2,CB2 receptor [5],Partial agonist
same,Ki,CB1 receptor [4]; Table 1,3.5 nM
Cc1c(C(=O)NN2CCCCC2)nn(-c2ccc(Cl)cc2Cl)c1-c1ccc(Cl)cc1 [SR141716A],Classification CB2,CB2 receptor [5],Inverse agonist
"Cc1ccc(Cn2nc(C(=O)NC3C4(C)CCC(C4)C3(C)C)cc2-c2ccc(Cl)c(C)c2)cc1 [SR144528, 5-(4-Chloro-3-methyl-phenyl)-1-(4-methyl-benzyl)-1H-pyrazole-3-carboxylic acid ((1S)-1,3,3-trimethylbicyclo[2.2.1]hept-2endo,exo-yl)-amide]",IC50,[1]; [8],~9 µM
same,IC50,[1]; [9],9 µM
same,survival and resorptive activity of authentic rabbit osteoclasts,rabbit osteoclasts,inhibit
same,IC50,osteoclasts,~5 µM
same,osteoblast survival,mouse osteoblasts,little activity
same,"ovariectomy-induced bone loss, trabecular density","[2]; 6 mg/kg daily injection, 21 days, pQCT, tibia",very effective at reversing the bone loss
same,ovariectomy-induced bone loss in a mouse model,[2],completely reverse
same,ovariectomy-induced bone loss at the femoral site (femoral bone mineral content and density),[7],very effective at reversing the bone loss
same,Classification CB1,CB1 receptor [3],Inverse agonist
Cc1c(C(=O)c2cccc3ccccc23)c2cccc3c2n1[C@H](CN1CCOCC1)CO3 [WIN55212],J774 viability (summary in words),[1],do not affect
same,IC50 in J774 cells,"[1]; J774 viability assay, Table 2",inactive
same,effect on J774 survival,[1]; concentrations of up to 100 μM,did not affect
same,CB receptor function (CB2),CB2 receptor [5],CB2 agonist
"Cc1ccc(Cn2nc(C(=O)NCc3ccc4c(c3)OCO4)cc2-c2ccc(Cl)c(C)c2)cc1 [benzodioxo, 5-(4-Chloro-3-methyl-phenyl)-1-(4-methyl-benzyl)-1H-pyrazole-3-carboxylic acid (benzo[1,3]dioxol-5-yl-methyl) amide]",IC50,[1]; [8],~15 µM
"COC(=O)c1cc(-c2ccc(Cl)c(C)c2)n(Cc2ccc(C)cc2)n1 [methyl, 5-(4-Chloro-3-methyl-phenyl)-1-(4-methyl-benzyl)-1H-pyrazole-3-carboxylic acid methyl ester]",IC50,[1]; [8],~9 µM
"Cc1ccc(Cn2nc(C(=O)NN3CCCCC3)cc2-c2ccc(Cl)c(C)c2)cc1 [piperidinyl, 5-(4-Chloro-3-methyl-phenyl)-1-(4-methyl-benzyl)-1H-pyrazole-3-carboxylic acid piperidin-1-yl amide]",IC50,[1]; [8],~15 µM
"CCCCCc1cc(O)c2c(c1)OC(C)(C)[C@@H]1CCC(C)=C[C@@H]21 [Δ^9THC, Δ^9-tetrahydrocannabinol]",Classification CB2,CB2 receptor [5],Neutral antagonist

# From patent publication US20060172019A1 (priority 2003, published 2006)
